Where a name gives a salt, the structure may show the parent alone.
What was measured:
Assay in all cases: biochemical
ZmDRIK1-R187-P492 = target: T1, ZmDRIK1-R187-P492 (Zea mays, UniProt C0P4K9); settings: read-out: dTm B, DSF, Boltzmann fit, 0.1% DMSO
T1 construct: kinase domain, R187-P492
T1 sequence (C0P4K9 1-514): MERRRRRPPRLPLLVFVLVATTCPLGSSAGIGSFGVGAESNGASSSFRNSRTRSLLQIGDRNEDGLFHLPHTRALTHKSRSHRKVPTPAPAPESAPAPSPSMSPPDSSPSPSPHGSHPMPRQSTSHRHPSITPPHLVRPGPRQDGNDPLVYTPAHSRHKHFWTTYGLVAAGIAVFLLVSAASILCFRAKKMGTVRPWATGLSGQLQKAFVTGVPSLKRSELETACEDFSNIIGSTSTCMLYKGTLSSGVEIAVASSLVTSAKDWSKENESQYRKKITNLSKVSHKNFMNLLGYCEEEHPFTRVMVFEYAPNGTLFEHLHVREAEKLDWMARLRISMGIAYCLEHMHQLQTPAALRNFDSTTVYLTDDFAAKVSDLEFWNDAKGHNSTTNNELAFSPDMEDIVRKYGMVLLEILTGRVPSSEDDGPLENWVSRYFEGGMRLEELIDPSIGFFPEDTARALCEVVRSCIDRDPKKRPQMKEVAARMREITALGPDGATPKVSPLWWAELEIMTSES

ZmDRIK1-K217-S514 = target: T2, ZmDRIK1-K217-S514 (Zea mays, UniProt C0P4K9); settings: read-out: dTm B, sheet ZmDRIK1-K217-S514;; DSF, Boltzmann fit, 0.1% DMSO
T2 construct: kinase domain, K217-S514
T2 sequence (C0P4K9 1-514): T1 sequence (C0P4K9 1-514)

[1] = target: T3, ZmDRIK1 (DROUGHT RESPONSIVE INACTIVE KINASE 1), kinase domain (Zea mays, UniProt C0P4K9); settings: read-out: dTm B, sheet ZmDRIK1-R187-S514;; DSF, Boltzmann fit, 0.1% DMSO
T3 construct: gene ZEAMMB73_Zm00001d028770; ZmDRIK1-KD R187-S514 (kinase domain)
T3 sequence (C0P4K9 187-514): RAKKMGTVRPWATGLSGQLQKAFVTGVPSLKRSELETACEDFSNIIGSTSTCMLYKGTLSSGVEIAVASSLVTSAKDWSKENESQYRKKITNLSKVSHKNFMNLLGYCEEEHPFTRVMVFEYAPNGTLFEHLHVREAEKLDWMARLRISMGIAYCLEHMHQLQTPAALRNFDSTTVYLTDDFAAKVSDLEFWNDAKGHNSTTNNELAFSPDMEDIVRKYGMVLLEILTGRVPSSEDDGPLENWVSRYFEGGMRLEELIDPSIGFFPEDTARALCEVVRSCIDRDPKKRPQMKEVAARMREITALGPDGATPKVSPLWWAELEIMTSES

ZmDRIK1-K217-P492 = target: T4, ZmDRIK1-K217-P492 (Zea mays, UniProt C0P4K9); settings: read-out: dTm B, sheet ZmDRIK1-K217-P492;; DSF, Boltzmann fit, 0.1% DMSO
T4 construct: kinase domain, K217-P492
T4 sequence (C0P4K9 1-514): T1 sequence (C0P4K9 1-514)

| Structure (SMILES) | ΔTm at 10 µM (ZmDRIK1-R187-P492) [°C] | ΔTm at 10 µM (ZmDRIK1-K217-S514) [°C] | ΔTm at 10 µM [1] [°C] | ΔTm at 10 µM (ZmDRIK1-K217-P492) [°C] |
| --- | --- | --- | --- | --- |
| COc1cc(Nc2ncc(F)c(Nc3ccc4c(n3)N(COP(=O)(O)O)C(=O)C(C)(C)O4)n2)cc(OC)c1OC [Fostamatinib (R788)] | -0.222 | -0.314 | -0.579 | -0.792 |
| CNC(=O)c1c(F)cccc1Nc1nc(Nc2cc3c(ccn3C(=O)CN(C)C)cc2OC)nc2[nH]ccc12 [GSK1838705A] | -0.292 | -0.398 | -0.961 | -0.578 |
| C[C@H](NC(=O)/C(C#N)=C/c1cccc(Br)n1)c1ccccc1 [WP1066] | -2 | -2.48 | -3.39 | -4.29 |
| Cn1cnc(N)c2ncnc1-2 [3-Methyladenine] | -0.274 | -0.375 | -0.528 | -0.621 |
| CC[C@@H]1C(=O)N(C)c2cnc(Nc3ccc(C(=O)N[C@H]4CC[C@H](N5CCN(CC6CC6)CC5)CC4)cc3OC)nc2N1C(C)C [Volasertib (BI 6727)] | -0.282 | -0.29 | -0.792 | -1.3 |
| CN(C)C/C=C/C(=O)Nc1cc2c(Nc3ccc(F)c(Cl)c3)ncnc2cc1O[C@H]1CCOC1 [Afatinib (BIBW2992)] | -0.346 | -0.623 | -0.728 | -1.3 |
| Cn1cnc2c(F)c(Nc3ccc(Br)cc3Cl)c(C(=O)NOCCO)cc21 [Selumetinib (AZD6244)] | -0.268 | -0.433 | -0.69 | -1.37 |
| CCc1nc(-c2cccc(C)c2)c(-c2ccnc(NC(=O)c3ccccc3)c2)s1 [TAK-715] | -0.496 | -0.442 | -0.0163 | -1.08 |
| Cc1ncc(-c2ccnc(Nc3ccc(S(C)(=O)=O)cc3)n2)n1C(C)C [AZD5438] | -0.417 | -0.394 | -0.576 | -1.24 |
| COc1ccc(S(=O)(=O)N(CCO)c2ccccc2CN(C)C/C=C/c2ccc(Cl)cc2)cc1 [KN-93 Phosphate] | -1.06 | -0.811 | -0.375 | -4.4 |
| COC(=O)Nc1ccc(-c2nc(N3CCOCC3)c3cnn(C4CCN(C(=O)OC)CC4)c3n2)cc1 [WYE-354] | 0.97 | -0.255 | -0.687 | -1.11 |
| Cc1ccc(NC(=O)c2cccc(N(C)C)c2)cc1NC(=O)c1ccc(O)cc1 [ZM 336372] | -0.214 | -0.418 | -1 | -0.965 |
| N#Cc1ccc2[nH]c(O)c(-c3ccc(CN4CCOCC4)cn3)c2c1 [AZD1080] | -0.506 | -0.298 | -1.22 | -0.787 |
| Oc1cccc(-c2nc(N3CCOCC3)c3oc4ncccc4c3n2)c1 [PI-103] | -0.366 | -0.559 | -0.608 | -1.14 |
| O=C(Cc1ccc(-c2ccc(OCCN3CCOCC3)cc2)cn1)NCc1ccccc1 [KX2-391] | -0.338 | -0.346 | -0.49 | -0.496 |
| CS(=O)(=O)c1cccc(CNc2nc(Nc3ccc4c(c3)CCC(=O)N4)ncc2C(F)(F)F)c1 [PF-573228] | 0.148 | 0.0316 | -0.638 | -1.45 |
| COc1cc2ncnc(Nc3ccc(F)c(Cl)c3)c2cc1NC(=O)/C=C/CN1CCCCC1 [Dacomitinib (PF299804)] | -0.258 | -0.1 | -0.735 | -0.0919 |
| Cc1ccc(-n2nc(C(C)(C)C)cc2NC(=O)Nc2ccc(OCCN3CCOCC3)c3ccccc23)cc1 [BIRB 796 (Doramapimod)] | -0.248 | -0.405 | 0.000298 | -0.873 |
| CCc1ccc(C=C2SC(=S)NC2=O)cc1 [10058-F4] | -0.741 | -0.172 | -1.27 | -1.02 |
| Cn1c(=O)c(F)c(Nc2ccc(I)cc2F)c2c(=O)n(C[C@@H](O)CO)cnc21 [TAK-733] | -0.375 | -0.514 | -0.814 | -1.32 |
| Cc1cnc(-c2cnc(NCCNc3ccc(C#N)cn3)nc2-c2ccc(Cl)cc2Cl)[nH]1 [CHIR-99021 (CT99021) HCl] | -0.404 | -0.494 | -0.639 | -0.928 |
| CCOc1cc(N2CCC(O)CC2)ccc1Nc1ncc2c(n1)N(C)c1ccccc1C(=O)N2C [XMD8-92] | -0.38 | -0.663 | -0.666 | -1.16 |
| COc1cc2c(Nc3ccc(NC(=O)c4ccccc4)cc3)ncnc2cc1OCCCN1CCOCC1 [ZM 447439] | 0.124 | 0.111 | -0.965 | -0.314 |
| Cn1cc(C2=C(c3cn(C4CCN(Cc5ccccn5)CC4)c4ccccc34)C(=O)NC2=O)c2ccccc21 [Enzastaurin (LY317615)] | -0.261 | -0.275 | -0.678 | -1.33 |
| Cc1[nH]c(/C=C2\C(=O)Nc3ccc(S(=O)(=O)Cc4c(Cl)cccc4Cl)cc32)c(C)c1C(=O)N1CCC[C@@H]1CN1CCCC1 [PHA-665752] | -0.648 | -0.843 | -0.988 | -1.25 |
| COc1ccc2cc(-c3nc(-c4ccc([S+](C)[O-])cc4)[nH]c3-c3ccncc3)ccc2c1 (stereo not drawn) [Tie2 kinase inhibitor] | -0.238 | -4.75 | -0.713 | -1.05 |
| C=CC(=O)Nc1cccc(Nc2nc(Nc3ccc(NC4CN(CCF)C4)cc3OC)ncc2C(F)(F)F)c1 [CNX-2006] | -0.528 | -0.646 | -0.903 | -1.15 |
| C=CC(=O)Nc1cccc(Sc2nc(Nc3ccc(N4CCN(C)CC4)cc3)ncc2Cl)c1 [WZ8040] | -0.275 | -0.291 | -0.927 | -0.667 |
| COc1cc2nccc(Oc3ccc(NC(=O)NC4CC4)c(Cl)c3)c2cc1C(N)=O [Lenvatinib (E7080)] | -0.406 | -0.299 | -1.04 | -1.02 |
| Cc1ccc(F)c(NC(=O)Nc2ccc(-c3cccc4[nH]nc(N)c34)cc2)c1 [Linifanib (ABT-869)] | -0.414 | -0.66 | -0.711 | -4.15 |
